Assay results from patent US6805878B2, “Transdermal administration of ACE inhibitors” (Noven Pharmaceuticals, Inc., priority 2001, dated 2004).
Counter-ions that a name gives are not always drawn.

Experiments:
[1] = Human cadaver skin permeation (flux) study, modified Franz diffusion cells; format: in vitro ADME; conditions: for flux of a dermal composition: carrier composition of Example 2, different cadaver skin, FIG. 1; for flux through skin (in words): enalapril ethyl ester prodrug compared with enalapril maleate form
Method: (§1) Human cadaver skin permeation studies were performed to quantitatively determine the effective permeation of enalapril ethyl ester through the stratum corneum. The stratum corneum was obtained from split thickness, cryo-preserved cadaver skin by the heat separation technique (˜55°). Samples of 5/16″ diameter were cut from the laminate, in triplicate, and mounted onto ½″ cut pieces of the stratum corneum. These samples were then placed on modified Franz diffusion cells. The receptor was filled with 7.5 mL of 0.9% NaCl and 0.01% NaN3 in deionized water. The cells were maintained at a constant 32° C. and were magnetically stirred at approximately 300 rpm. At specified time points, samples of the receptor phase were taken with complete replacement of the receptor phase. These samples were quantified by high-performance liquid chromatography (HPLC) utilizing Waters HPLC instrumentation. C-8(15 cm×4.6 mm) 5 μm particle size columns ([…] made by MetaChem Technologies, Inc.; Torrance, Calif.) were used at 50° C. (column temperature). The mobile phase contained 50% acetonitrile: 50% buffer (10 mM KH2PO4, pH=2.7). The detection wavelength was 214 nm. HPLC flow rate is 1.5 mL/min.

[2] = tested on: esterase enzyme in the skin; experiment: Hydrolysis of penetrated prodrug in the skin after permeation; format: in vitro ADME, Human
Method: as §1
More than 50% of the penetrated enalapril ethyl ester was hydrolyzed into enalaprilat after permeation through the skin.

SMILES | flux of a dermal composition [1] | flux through skin (in words) [1] | penetrated enalapril ethyl ester hydrolyzed into enalaprilat ([2]; after permeation through the skin) | hydrolysis of the ethyl ester group on the proline moiety ([2]; by an esterase enzyme in the skin)
CCOC(=O)[C@H](CCc1ccccc1)N[C@@H](C)C(=O)N1CCC[C@H]1C(=O)OCC [enalapril ethyl ester] | 4.8 µg/cm²/h | significantly greater | More than 50% | selectively hydrolyzed
CCOC(=O)[C@H](CCc1ccccc1)N[C@@H](C)C(=O)N1CCC[C@H]1C(=O)O [enalapril maleate, reference compound] | 0.2 μg/cm^2/sec | negligible |  | 
